From patent US12527844B2, “Pharmaceutical formulations” (Novo Nordisk A/S, priority 2020, dated 2026)
Like-named read-outs stand apart in the source and are kept apart here.

Assays:
[1] = Semaglutide solubility in the pH range 3.5-7.5 (FIG. 2); format: physicochemical
Description: FIG. 2 depicts semaglutide solubility in the pH range 3.5-7.5. […] Concentrations below ca. 0.6 mM indicate that no more than the analysed amount of semaglutide can be dissolved when the pH is below about 5.9.

[2] = PK after single s.c. administration via prefilled dual chamber syringe or separate injections; format: in vivo, LYD pigs; conditions: for AUC/Dose [mean ± SD]: single s.c. dose
Description: Female cross bred domestic pigs (Danish Landrace, Yorkshire and Duroc—LYD pigs), having a body weight of approximately 80-100 kg, were used for exploring PK profiles.
A full plasma concentration-time profile was obtained from each animal, from pre-dosing to 18 days post dosing.
Plasma was analysed by means of Luminescence Oxygen Channelling Immunoassay (LOCI) and Liquid Chromatography-Mass Spectrometry (LCMS) for semaglutide and cagrilintide, respectively. Non-compartmental pharmacokinetic analysis, using individual plasma concentration-time profiles, was performed.

[3] = dual chamber syringe versus separate injections

solubility ([1]; pH above about 5.9, read-out: maximum solubility): > 600 µM
solubility ([1]; pH below about 5.9, read-out: solubility (dissolved concentration)): < 600 µM
AUC/Dose % increase (Co-dosing vs. dual-chamber syringe) [2, 3]: ~13%
Cmax % increase (Co-dosing vs. dual-chamber syringe) [2, 3]: ~22%
t½ % increase (Co-dosing vs. dual-chamber syringe) [2, 3]: ~0%
AUC/Dose [mean ± SD] ([2]; group Dual chamber syringe 2.4/2.4): 1560 ± 229 kg·h/L
AUC/Dose [mean ± SD] ([2]; group Mono (separate injections per title)): 1380 ± 78.1 kg·h/L
Compound: CC[C@H](C)[C@H](NC(=O)[C@H](Cc1ccccc1)NC(=O)[C@H](CCC(=O)O)NC(=O)[C@H](CCCCNC(=O)COCCOCCNC(=O)COCCOCCNC(=O)CC[C@H](NC(=O)CCCCCCCCCCCCCCCCC(=O)O)C(=O)O)NC(=O)[C@H](C)NC(=O)[C@H](C)NC(=O)[C@H](CCC(N)=O)NC(=O)CNC(=O)[C@H](CCC(=O)O)NC(=O)[C@H](CC(C)C)NC(=O)[C@H](Cc1ccc(O)cc1)NC(=O)[C@H](CO)NC(=O)[C@H](CO)NC(=O)[C@@H](NC(=O)[C@H](CC(=O)O)NC(=O)[C@H](CO)NC(=O)[C@@H](NC(=O)[C@H](Cc1ccccc1)NC(=O)[C@@H](NC(=O)CNC(=O)[C@H](CCC(=O)O)NC(=O)C(C)(C)NC(=O)[C@@H](N)Cc1cnc[nH]1)[C@@H](C)O)[C@@H](C)O)C(C)C)C(=O)N[C@@H](C)C(=O)N[C@@H](Cc1c[nH]c2ccccc12)C(=O)N[C@@H](CC(C)C)C(=O)N[C@H](C(=O)N[C@@H](CCCNC(=N)N)C(=O)NCC(=O)N[C@@H](CCCNC(=N)N)C(=O)NCC(=O)O)C(C)C [semaglutide, N^6,26-{18-[N-(17-carboxyheptadecanoyl)-L-γ-glutamyl]-10-oxo-3,6,12,15-tetraoxa-9,18-diazaoctadecanoyl}-[8-(2-amino-2-propanoic acid),34-L-arginine]human glucagon-like peptide 1(7-37)]
